Reference: patent US12441704B2, “Compounds active towards nuclear receptors” (NUEVOLUTION A/S, priority 2019, dated 2025)
Where two headings read alike, the source gives them in different places.

How the values were obtained:
[1] = tested on: IL-17A secretion in activated PBMCs; experiment: IL-17A secretion in activated PBMCs; format: cell-based, human; settings: Homo sapiens, PBMC, 48 h, human PBMCs stimulated with CD3/CD28 Dynabeads for 48 h; absolute IC50
Method: Heparin-treated whole blood from healthy human volunteers was supplied from Hospital de Sant Pau (Barcelona) under the approval of the local ethical review board for human studies (Hospital de Sant Pau, Barcelona, Spain). Human peripheral blood mononuclear cells (PBMCs) were isolated from healthy human volunteers by density gradient centrifugation using the Ficoll-Paque (GE Healthcare). […] Cells were seeded in 384-well plate (DiscoverX), at 40,000 cells per well and cultured 2 h at 37° C. and 5% CO2.
Dose-response curves with compounds were prepared using a 5-fold serial dilution (10 concentrations) in 100% DMSO and further diluted 100-fold in culture medium. Compound solutions (5 μL) were added to the plate containing cells (final DMSO concentration of 0.1%) and incubated for 30 min. Then, cells were stimulated with CD3/CD28 Dynabeads (ThermoFisher, at a bead-to-cell ratio of 1:1) for 48 h at 37° C. and 5% CO2.
IL-17A levels in supernatant were determined by immunoassay using hIL17A QBeads (Intellicyt) and by fluorescence analysis in iQue flow cytometer following the manufacturer's instructions. Inhibition of IL-17A secretion was calculated using the following formula: inhibition=100*[1−[(x−mean basal condition)/(mean top condition−mean basal condition)]]. Activated DMSO-treated cells were used as top condition and activated GNE09461 (10 μM)-treated cells as basal condition.

[2] = target: T1, RORγ ligand-binding domain fused to Gal4 (Homo sapiens, UniProt P51449); experiment: RORγ Reporter Assay (Gal4); format: cell-based
T1 construct: Gal4 (galactose-responsive transcription factor); expressed in transfected cells; host or cells: HEK293
T1 sequence (P51449 269-508 limits assumed): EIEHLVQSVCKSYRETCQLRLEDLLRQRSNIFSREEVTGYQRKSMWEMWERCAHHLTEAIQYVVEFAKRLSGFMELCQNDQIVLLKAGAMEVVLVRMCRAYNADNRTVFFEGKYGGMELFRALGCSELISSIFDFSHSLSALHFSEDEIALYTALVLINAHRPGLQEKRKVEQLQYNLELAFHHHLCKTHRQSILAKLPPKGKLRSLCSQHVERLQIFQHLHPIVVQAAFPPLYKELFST
Outline: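 Percent inhibition was derived from luciferase RLU versus vehicle mean after 24 h compound incubation (37 °C, 0.1% DMSO). The cells were HEK293, transiently co-expressing a Gal4–RORγ ligand-binding-domain fusion plus a UAS-driven luciferase gene.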

[3] = HEK293 cells co-transfected with RORγ LBD-Gal4 and luciferase reporter, 24 h incubation, absolute EC50, read-out: EC50
[4] = compounds of the present disclosure, value from Table 2 herein, read-out: Gal4 assay EC50

Row | Structure (SMILES) | IC50 [1] | EC50 [2, 3] | EC50 [2, 4]
1 | NC(=O)CN1CC[C@@H](CNc2ncnc(N(Cc3ccc(C(O)(C(F)(F)F)C(F)(F)F)cc3)C3CC3)c2F)[C@H](O)C1 (stereo in doubt) [Example A7-54, rac-2-((3R,4R)-4-(((6-(cyclopropyl(4-(1,1,1,3,3,3-hexafluoro-2-hydroxypropan-2-yl)benzyl)amino)-5-fluoropyrimidin-4-yl)amino)methyl)-3-hydroxypiperidin-1-yl)acetamide] | 5.6 nM | 0.6 nM | 
2 | NC(=O)C(c1ccncc1)N1CC[C@](O)(CNc2ncnc(N(Cc3ccc(C(F)(F)F)cc3)C3CC3)c2F)[C@@H](O)C1 (relative stereo) [Example D5-08, rel-2-((3R,4R)-4-(((6-(cyclopropyl(4-(trifluoromethyl)benzyl)amino)-5-fluoropyrimidin-4-yl)amino)methyl)-3,4-dihydroxypiperidin-1-yl)-2-(pyridin-4-yl)acetamide] | 2.7 nM | 6.1 nM | 
3 | NC(=O)CN1CCC(CNc2ncnc(N(Cc3ccc(C(F)(F)F)cc3)C3CC3)c2F)(C(N)=O)CC1 [Example A7-44, 1-(2-amino-2-oxoethyl)-4-(((6-(cyclopropyl(4-(trifluoromethyl)benzyl)amino)-5-fluoropyrimidin-4-yl)amino)methyl)piperidine-4-carboxamide] | 74 nM | 24 nM | 
4 | Cn1cc(-c2ccc(CN(c3ncnc(NC[C@@H]4CCN(CC(N)=O)C[C@H]4O)c3F)C3CC3)cc2)cn1 (racemic) [Example A7-74, rac-2-((3R,4R)-4-(((6-(cyclopropyl(4-(1-methyl-1H-pyrazol-4-yl)benzyl)amino)-5-fluoropyrimidin-4-yl)amino)methyl)-3-hydroxypiperidin-1-yl)acetamide] | 23 nM | 12 nM | 
5 | N#CC1(CNc2ncnc(N(Cc3ccc(C(F)(F)F)cc3)C3CC3)c2F)CCN(CC(N)=O)CC1 [Example A7-50, 2-(4-cyano-4-(((6-(cyclopropyl(4-(trifluoromethyl)benzyl)amino)-5-fluoropyrimidin-4-yl)amino)methyl)piperidin-1-yl)acetamide] | 40 nM | 8.1 nM | 
6 | NC(=O)C(c1ccncc1)N1CC[C@@H](CNc2ncnc(N(Cc3ccc(C(F)(F)F)cc3)C3CC3)c2F)[C@H](O)C1 (mixture of isomers) [Example A7-63, rac-2-((3R,4R)-4-(((6-(cyclopropyl(4-(trifluoromethyl)benzyl)amino)-5-fluoropyrimidin-4-yl)amino)methyl)-3-hydroxypiperidin-1-yl)-2-(pyridin-4-yl)acetamide] | 2.3 nM | 3.4 nM | 
7 | NC(=O)CN1CC[C@@H](CNc2ncnc(N(Cc3ccc(C(O)(C(F)(F)F)C(F)(F)F)cc3)C3CC3)c2F)[C@H](O)C1 (single isomer, unassigned) [Example A7-54-1] | 9.8 nM | 3.8 nM | 
8 | NC(=O)C(CO)N1CCC(CO)(CNc2ncnc(N(Cc3ccc(C(F)(F)F)cc3)C3CC3)c2F)CC1 (centres unmarked) [Example A7-70, 2-(4-(((6-(cyclopropyl(4-(trifluoromethyl)benzyl)amino)-5-fluoropyrimidin-4-yl)amino)methyl)-4-(hydroxymethyl)piperidin-1-yl)-3-hydroxypropanamide] | 12 nM | 8.8 nM | 
9 | NC(=O)C(CO)N1CCC(O)(CNc2ncnc(N(Cc3ccc(C(F)(F)F)cc3)C3CC3)c2F)CC1 (centres unmarked) [Example A7-68, 2-(4-(((6-(cyclopropyl(4-(trifluoromethyl)benzyl)amino)-5-fluoropyrimidin-4-yl)amino)methyl)-4-hydroxypiperidin-1-yl)-3-hydroxypropanamide] | 21 nM | 20 nM | 
10 | Cn1cc(-c2ccc(CN(c3ncnc(NC[C@@H]4CCN(CC(N)=O)C[C@H]4O)c3F)C3CC3)c(F)c2)cn1 (racemic) [Example A7-75, rac-2-((3R,4R)-4-(((6-(cyclopropyl(2-fluoro-4-(1-methyl-1H-pyrazol-4-yl)benzyl)amino)-5-fluoropyrimidin-4-yl)amino)methyl)-3-hydroxypiperidin-1-yl)acetamide] | 18 nM | 13 nM | 
11 | NC(=O)CN1CCC(CNc2ncnc(N(Cc3ccc(C(F)(F)F)cc3)C3CC3)c2F)(c2nnco2)CC1 [Example A7-82, 2-(4-(((6-(Cyclopropyl(4-(trifluoromethyl)benzyl)amino)-5-fluoropyrimidin-4-yl)amino)methyl)-4-(1,3,4-oxadiazol-2-yl)piperidin-1-yl)acetamide] | 150 nM | 8.1 nM | 
12 | NC(=O)CN1CC[C@@H](CNc2ncnc(N(Cc3ccc(C(F)(F)F)nc3)C3CC3)c2F)[C@H](O)C1 (single isomer, unassigned) [Example A7-28-1] | 62 nM | 42 nM | 
13 | CCN(Cc1ccc(C(F)(F)F)cc1)c1ncnc(NC[C@@]2(O)CCN(C(C(N)=O)c3ccncc3)C[C@@H]2O)c1F (relative stereo) [Example D5-07, rel-2-((3R,4R)-4-(((6-(ethyl(4-(trifluoromethyl)benzyl)amino)-5-fluoropyrimidin-4-yl)amino)methyl)-3,4-dihydroxypiperidin-1-yl)-2-(pyridin-4-yl)acetamide] | 2.5 nM | 4.5 nM | 
14 | CC(C)(C(N)=O)N1CC[C@@H](CNc2ncnc(N(Cc3ccc(C(F)(F)F)cc3)C3CC3)c2F)[C@H](O)C1 (relative stereo) [Example A7-55, rel-2-((3R,4R)-4-(((6-(cyclopropyl(4-(trifluoromethyl)benzyl)amino)-5-fluoropyrimidin-4-yl)amino)methyl)-3-hydroxypiperidin-1-yl)-2-methylpropanamide] | 4.9 nM | 4.7 nM | 
15 | NC(=O)CN1CC[C@@H](CNc2ncnc(N(Cc3ccc(-n4cccn4)cc3F)C3CC3)c2F)[C@H](O)C1 (racemic) [Example A7-76, rac-2-((3R,4R)-4-(((6-(cyclopropyl(2-fluoro-4-(1H-pyrazol-1-yl)benzyl)amino)-5-fluoropyrimidin-4-yl)amino)methyl)-3-hydroxypiperidin-1-yl)acetamide] | 92 nM | 6.6 nM | 
16 | CC(F)(F)c1ccc(CN(c2ncnc(NC[C@@H]3CCN(CC(N)=O)C[C@H]3O)c2F)C2CC2)cc1 (racemic) [Example A7-40, rac-2-((3R,4R)-4-(((6-(cyclopropyl(4-(1,1-difluoroethyl)benzyl)amino)-5-fluoropyrimidin-4-yl)amino)methyl)-3-hydroxypiperidin-1-yl)acetamide] | 7.7 nM | 5.5 nM | 
17 | NC(=O)CN1CC[C@@H](CNc2ncnc(N(Cc3ccc(C(F)(F)F)cc3)[C@H]3C[C@@H](F)C3)c2F)[C@H](O)C1 (racemic) [Example A7-32, rac-2-((3R,4R)-4-(((5-fluoro-6-(((1s,3R)-3-fluorocyclobutyl)(4-(trifluoromethyl)benzyl)amino)pyrimidin-4-yl)amino)methyl)-3-hydroxypiperidin-1-yl)acetamide] | 220 nM | 34 nM | 
18 | CCN(Cc1ccc(C(F)(F)F)cc1)c1ncnc(NC[C@H]2CCN(CC(N)=O)C[C@@H]2O)c1F (racemic) [Example A7-21, rac-2-((3R,4R)-4-(((6-(ethyl(4-(trifluoromethyl)benzyl)amino)-5-fluoropyrimidin-4-yl)amino)methyl)-3-hydroxypiperidin-1-yl)acetamide] | 80 nM | 12 nM | 
19 | NC(=O)CN1CC[C@@H](CNc2ncnc(N(Cc3ccc(C(F)(F)F)cc3)[C@H]3C[C@H](F)C3)c2F)[C@H](O)C1 (racemic) [Example A7-31, rac-2-((3R,4R)-4-(((5-fluoro-6-(((1r,3S)-3-fluorocyclobutyl)(4-(trifluoromethyl)benzyl)amino)pyrimidin-4-yl)amino)methyl)-3-hydroxypiperidin-1-yl)acetamide] | 180 nM | 29 nM | 
20 | NC(=O)CN1CCC(CO)(CNc2ncnc(N(Cc3ccc(C(F)(F)F)nc3)C3CC3)c2F)CC1 [Example A7-45, 2-(4-(((6-(cyclopropyl((6-(trifluoromethyl)pyridin-3-yl)methyl)amino)-5-fluoropyrimidin-4-yl)amino)methyl)-4-(hydroxymethyl)piperidin-1-yl)acetamide] | 80 nM | 46 nM | < 100 nM
21 | NC(=O)CN1CCC(O)(CNc2ncnc(N(Cc3ccc(C(F)(F)F)nc3)C3CC3)c2F)CC1 [Example A7-11, 2-(4-(((6-(cyclopropyl((6-(trifluoromethyl)pyridin-3-yl)methyl)amino)-5-fluoropyrimidin-4-yl)amino)methyl)-4-hydroxypiperidin-1-yl)acetamide] | 200 nM | 72 nM | < 100 nM
